Measured values: patent US20090298752A1, “APLIDINE TREATMENT OF CANCERS” (PHARMA MAR, S.A., priority 1999, published 2009)
“Also recorded” adds a separate entry of the source.

Key:
Gastric MRI-H254 = experiment: sc hollow fibre (HF), gastric tumour cells, rat; format: in vivo; conditions: 24 hr.iv inf., 0.7 mg/kg
Protocol: Different model systems were evaluated to provide the basis for further clinical work. Selective antitumour activities were seen against two histologically different solid tumours: human gastric and prostate carcinomas. Potent in vitro activity to primary gastric tumour specimens or Hs746T gastric tumour cells is evident with IC30 values of 146 and 450 pM, respectively. […] activities were evaluated in nude rodents using sc implanted tumour fragments or hollow fibres (HF) containing tumour cells.
Follow-up studies necessitated using rats for iv infusions. With this variation, a 24 hr iv infusion schedule produced similar activities against HF gastric (20%) and HF prostate (31%) tumour cells. Cytotoxicity was also found using a 5 day iv infusion schedule against HF prostate tumour cells (33%).

P388 leukaemia = conditions: mice; cited from earlier work
VEGF = VEGF secretion from IGROV-1; format: cell-based, human
VEGF mRNA = VEGF mRNA levels in IGROV-1; format: cell-based, human
AP-1 = experiment: gel retardation assay, transcription factor binding; format: biochemical; conditions: nuclear extracts incubated with aplidine, 60 min
Protocol: Nuclear extracts were incubated with different aplidine concentrations and labelled oligonucleotides for 60 min. Using gel retardation assay the binding of HIF-1 or AP-1 has been monitored.

[1] = Phase I, 1 h daily infusion x5 q3wk: toxicity and pharmacokinetics; format: in vivo, human
Protocol: The objectives are to determine the Maximum Tolerated Dose, the Dose Limiting Toxicity (DLT), the pharmacokinetics (PK) and the recommended dose for phase 2 studies that can be given in a daily 1 hour IV infusion×5 days q 3 weeks. Patients with solid tumours and low and intermediate grade Non-Hodgkin's Lymphomas were eligible. The daily starting dose of aplidine was 80 μg/m^2. Cohorts of 3 patients (pts) are treated at each level with dose escalation according to toxicity, 20 patients were treated with 6 dose levels ranging from 80 μg-720 μg/m^2, 1 patient is presently at the dose of 960 μg/m^2. At total of 48 cycles were administered. Non-haematological toxicities were grade 1 and 2 with fatigue reported in most pts. Grade 1 hypersensitivity reactions were documented in 7 patients. Other toxicities included nausea, anorexia, diarrhoea, and anxiety. […] PK analysis was performed in treatment course 1. Aplidine concentrations were analysed by LC tandem mass spectrography. […] Potentially therapeutic plasma concentrations ([…]) were achieved. […] Accrual is ongoing at 960 μg/m^2.

[2] = stability testing of aplidine and lyophilised dosage form; format: physicochemical; conditions: solubilised; heat and light stress testing
Protocol: In a currently preferred embodiment freeze-drying was performed from a 500 mg/mL solution of aplidine in 40% (v/v) tert-butanol in Water for Injection (WfI) containing 25 mg/mL D-mannitol as bulking agent.

Substance: aplidine
- Activity (% T/C.) (Gastric MRI-H254): 20 % T/C
- activity against implanted tumour (P388 leukaemia): active
- secretion of VEGF, in words (VEGF): reduce the secretion of VEGF
- mRNA levels of VEGF, in words (VEGF mRNA): reduces the mRNA levels of VEGF
- binding of AP-1 to consensus DNA sequence (AP-1): does not block the binding; also recorded: did not change the ability
- DLT ([1]; 80-960 μg/m^2 daily x5): no DLT has been documented
- Bilirubin Grade 1 ([1]; DL 1, 80 ug/m^2): 1
- Diarrhoea Grade 1 ([1]; DL 1, 80 ug/m^2): 1
- Fatigue Grade 1 ([1]; DL 1, 80 ug/m^2): 1
- Fatigue Grade 2 ([1]; DL 1, 80 ug/m^2): 2
- Fever Grade 1 ([1]; DL 1, 80 ug/m^2): 1
- Fever Grade 2 ([1]; DL 1, 80 ug/m^2): 1
- Haemoglobin Grade 1 ([1]; DL 1, 80 ug/m^2): 1
- Haemoglobin Grade 2 ([1]; DL 1, 80 ug/m^2): 2
- Hyper-sensitivity Grade 1 ([1]; DL 1, 80 ug/m^2): 1
- Hyper-sensitivity Grade 2 ([1]; DL 1, 80 ug/m^2): 1
- Motor neuropathy Grade 1 ([1]; DL 1, 80 ug/m^2): 3
- Motor neuropathy Grade 2 ([1]; DL 1, 80 ug/m^2): 2
- Myalgia/weakness Grade 2 ([1]; DL 1, 80 ug/m^2): 1
- Nausea Grade 1 ([1]; DL 1, 80 ug/m^2): 2
- SGOT Grade 1 ([1]; DL 1, 80 ug/m^2): 1
- Sensory neuropathy Grade 1 ([1]; DL 1, 80 ug/m^2): 2
- Sensory neuropathy Grade 2 ([1]; DL 1, 80 ug/m^2): 1
- Haemoglobin Grade 3 ([1]; DL 1, 80 ug/m^2, doubtful): 3
- Diarrhoea Grade 1 ([1]; DL 2, 120 ug/m^2): 2
- Fatigue Grade 1 ([1]; DL 2, 120 ug/m^2): 3
- Haemoglobin Grade 1 ([1]; DL 2, 120 ug/m^2): 2
- Hyper-sensitivity Grade 1 ([1]; DL 2, 120 ug/m^2): 1
- Nausea Grade 1 ([1]; DL 2, 120 ug/m^2): 1
- SGOT Grade 1 ([1]; DL 2, 120 ug/m^2): 1
- Sensory neuropathy Grade 1 ([1]; DL 2, 120 ug/m^2): 2
- Granulocytes Grade 2 ([1]; DL 2, 120 ug/m^2, doubtful): 1
- Haemoglobin Grade 3 ([1]; DL 2, 120 ug/m^2, doubtful): 1
- Haemoglobin Grade 4 ([1]; DL 2, 120 ug/m^2, doubtful): 2
- CPK Grade 4 ([1]; DL 3, 240 ug/m^2): 1
- Creatinine Grade 1 ([1]; DL 3, 240 ug/m^2): 2
- Diarrhoea Grade 2 ([1]; DL 3, 240 ug/m^2): 2
- Fatigue Grade 1 ([1]; DL 3, 240 ug/m^2): 1
- Fatigue Grade 2 ([1]; DL 3, 240 ug/m^2): 1
- Fatigue Grade 3 ([1]; DL 3, 240 ug/m^2): 1
- Haemoglobin Grade 1 ([1]; DL 3, 240 ug/m^2): 1
- Haemoglobin Grade 2 ([1]; DL 3, 240 ug/m^2): 1
- Myalgia/weakness Grade 1 ([1]; DL 3, 240 ug/m^2): 1
- Nausea Grade 1 ([1]; DL 3, 240 ug/m^2): 2
- Nausea Grade 2 ([1]; DL 3, 240 ug/m^2): 1
- SGOT Grade 1 ([1]; DL 3, 240 ug/m^2): 2
- Sensory neuropathy Grade 1 ([1]; DL 3, 240 ug/m^2): 1
- Granulocytes Grade 1 ([1]; DL 3, 240 ug/m^2, doubtful): 1
- Granulocytes Grade 2 ([1]; DL 3, 240 ug/m^2, doubtful): 2
- Haemoglobin Grade 4 ([1]; DL 3, 240 ug/m^2, doubtful): 2
- Creatinine Grade 1 ([1]; DL 4, 360 ug/m^2): 1
- Diarrhoea Grade 1 ([1]; DL 4, 360 ug/m^2): 1
- Fatigue Grade 2 ([1]; DL 4, 360 ug/m^2): 3
- Fever Grade 1 ([1]; DL 4, 360 ug/m^2): 1
- Haemoglobin Grade 1 ([1]; DL 4, 360 ug/m^2): 2
- Haemoglobin Grade 2 ([1]; DL 4, 360 ug/m^2): 2
- Hyper-sensitivity Grade 1 ([1]; DL 4, 360 ug/m^2): 1
- Hyper-sensitivity Grade 2 ([1]; DL 4, 360 ug/m^2): 1
- Motor neuropathy Grade 1 ([1]; DL 4, 360 ug/m^2): 1
- Nausea Grade 1 ([1]; DL 4, 360 ug/m^2): 1
- Nausea Grade 3 ([1]; DL 4, 360 ug/m^2): 1
- SGOT Grade 1 ([1]; DL 4, 360 ug/m^2): 2
- Sensory neuropathy Grade 1 ([1]; DL 4, 360 ug/m^2): 1
- Sensory neuropathy Grade 2 ([1]; DL 4, 360 ug/m^2): 1
- Granulocytes Grade 1 ([1]; DL 4, 360 ug/m^2, doubtful): 1
- Haemoglobin Grade 3 ([1]; DL 4, 360 ug/m^2, doubtful): 1
- Haemoglobin Grade 4 ([1]; DL 4, 360 ug/m^2, doubtful): 2
- CPK Grade 1 ([1]; DL 5, 540 ug/m^2): 1
- Diarrhoea Grade 1 ([1]; DL 5, 540 ug/m^2): 2
- Fatigue Grade 2 ([1]; DL 5, 540 ug/m^2): 2
- Fatigue Grade 3 ([1]; DL 5, 540 ug/m^2): 1
- Fever Grade 2 ([1]; DL 5, 540 ug/m^2): 1
- Haemoglobin Grade 1 ([1]; DL 5, 540 ug/m^2): 1
- Haemoglobin Grade 2 ([1]; DL 5, 540 ug/m^2): 1
- Hyper-sensitivity Grade 1 ([1]; DL 5, 540 ug/m^2): 1
- Motor neuropathy Grade 1 ([1]; DL 5, 540 ug/m^2): 1
- Motor neuropathy Grade 2 ([1]; DL 5, 540 ug/m^2): 1
- Myalgia/weakness Grade 1 ([1]; DL 5, 540 ug/m^2): 1
- Nausea Grade 1 ([1]; DL 5, 540 ug/m^2): 2
- Nausea Grade 3 ([1]; DL 5, 540 ug/m^2): 1
- SGOT Grade 1 ([1]; DL 5, 540 ug/m^2): 2
- Sensory neuropathy Grade 1 ([1]; DL 5, 540 ug/m^2): 2
- Sensory neuropathy Grade 2 ([1]; DL 5, 540 ug/m^2): 1
- Granulocytes Grade 1 ([1]; DL 5, 540 ug/m^2, doubtful): 1
- Haemoglobin Grade 4 ([1]; DL 5, 540 ug/m^2, doubtful): 2
- Bilirubin Grade 1 ([1]; DL 6, 720 ug/m^2): 1
- CPK Grade 1 ([1]; DL 6, 720 ug/m^2): 1
- Diarrhoea Grade 1 ([1]; DL 6, 720 ug/m^2): 1
- Fatigue Grade 1 ([1]; DL 6, 720 ug/m^2): 1
- Fatigue Grade 4 ([1]; DL 6, 720 ug/m^2): 1
- Fever Grade 1 ([1]; DL 6, 720 ug/m^2): 1
- Haemoglobin Grade 2 ([1]; DL 6, 720 ug/m^2): 2
- Hyper-sensitivity Grade 3 ([1]; DL 6, 720 ug/m^2): 1
- Motor neuropathy Grade 3 ([1]; DL 6, 720 ug/m^2): 1
- Myalgia/weakness Grade 4 ([1]; DL 6, 720 ug/m^2): 1
- Nausea Grade 1 ([1]; DL 6, 720 ug/m^2): 3
- SGOT Grade 1 ([1]; DL 6, 720 ug/m^2): 2
- Sensory neuropathy Grade 1 ([1]; DL 6, 720 ug/m^2): 1
- Haemoglobin Grade 3 ([1]; DL 6, 720 ug/m^2, doubtful): 2
- Haemoglobin Grade 4 ([1]; DL 6, 720 ug/m^2, doubtful): 2
- Fatigue Grade 2 ([1]; DL 7, 960 ug/m^2): 2
- Haemoglobin Grade 2 ([1]; DL 7, 960 ug/m^2): 2
- Nausea Grade 1 ([1]; DL 7, 960 ug/m^2): 1
- Nausea Grade 2 ([1]; DL 7, 960 ug/m^2): 1
- Sensory neuropathy Grade 1 ([1]; DL 7, 960 ug/m^2): 1
- Granulocytes Grade 1 ([1]; DL 7, 960 ug/m^2, doubtful): 1
- Haemoglobin Grade 4 ([1]; DL 7, 960 ug/m^2, doubtful): 1
- haematological toxicities ([1]; Example 10): no haematological toxicities
- plasma concentrations achieved ([1]; Example 10): > 1 µg/mL
- Grade 1 hypersensitivity reactions ([1]; Example 10, 20 patients): 7 patients
- neuropathy or myopathy ([1]; Example 16): No clear evidence of neuropathy or myopathy
- total body / plasma clearance ([1]; median): 0.38 L/min
- degradation [2]: substantial degradation
